Source: PubChem BioAssay AID1963863 (Molecular Pharmacology Branch, DTP, NCI, 2024)

Tested on: 931267-113-T-J1-PDC KRAS spheroid with HUVEC/MSC, viability
Experiment: Anticancer human tumor 931267-113-T-J1-PDC patient-derived colon adenocarcinoma cell line growth inhibition [KRAS2]
Settings: for IC50: curve of first compound; for viability, T/C: stronger effect = lower value
Text: Multicellular complex tumor spheroid response to RAS pathway inhibitors in combination with a targeted agents in patient-derived cell lines with oncogenic KRAS variants from multiple cancer types
A high-throughput screen of multi-cell type tumor spheroids was designed to identify active combinations of targeted small molecules and KRAS pathway inhibitors. Complex spheroids include a stromal component modeled by human endothelial cells (HUVEC) and fibroblasts modeled by human mesenchymal stem cells (MSCs). The concentration ranges selected for each drug and investigational agent were based upon clinically achievable concentrations if the clinical Cmax of the agent was known.
Compounds. The drugs and investigational agents: BI-3406 (NSC825286), BAY-293 (NSC824723), batoprotafib (TNO155; NSC825523), sotorasib (AMG 510; NSC818433), MRTX1257 (NSC819558), elimusertib (BAY 1895344; NSC800525), molibresib (GSK525762; NSC774829), temuterkib (LY3214996; NSC803410), venetoclax (NSC766270), alisertib (NSC759677), olaparib (NSC753686), talazoparib (NSC767125), erdafitinib (NSC781556), ipatasertib (NSC767898), cabozantinib (NSC761068), nintedanib (NSC756659), abemaciclib (NSC768073), docetaxel (NSC628503), trametinib (NSC758246), and sapanisertib (NSC764658) were obtained from the National Cancer Institute (NCI) Developmental Therapeutics Program Chemical Repository. The FDA-approved anticancer drug set is available from the Developmental Therapeutics Program. […] The stock solutions were prepared in dimethyl sulfoxide (DMSO, Sigma-Aldrich, St. Louis, MO, cat. D2650) at 800-fold the tested concentration and stored at -70 degrees C prior to their use. All drugs and investigational agents were tested over a range starting from a high concentration at or near the clinical Cmax and decreasing in half-log increments. If the clinical Cmax for an agent had not been determined, the highest concentration tested was 10 microM.
Cell Culture. All cells were maintained in an incubator at 37 degrees C and 5% CO2 with 95% humidity. The PDC lines were cultured according to standard operating procedures established by the NCI PDMR (https://pdmr.cancer.gov/sops/default.htm). Briefly, all PDCs were thawed and cultured in Matrigel-coated flasks prepared with a working solution of 1X Ham's F-12 nutrient mix, without supplementation (Invitrogen, Waltham, MA, cat. 11765054), 100 U/mL penicillin-streptomycin (Invitrogen, cat. 15140122), and 2.5% Matrigel (Corning Inc., Corning, NY, cat. 354248) for the first three passages. All PDCs were cultured in complete DMEM/F-12 media containing advanced DMEM/F-12 (Invitrogen, cat. 12634028), 4.9% defined fetal bovine serum, heat inactivated (HyClone Laboratories Inc., Logan, UT, cat. SH30070.03HI), 389 ng/mL hydrocortisone (Sigma-Aldrich, cat. H4001), 9.7 ng/mL human EGF recombinant protein (Invitrogen, cat. PHG0313), 23.4 microg/mL adenine (Sigma-Aldrich, cat. A2786), 97.3 U/mL penicillin-streptomycin (Invitrogen, cat. 15140122), 1.9 mM L-glutamine (Invitrogen, cat. 25030081), and 9.7 microM Y-27632 dihydrochloride (Tocris Bioscience, Bristol, United Kingdom, cat. 1254). The PDCs were cultured in complete DMEM/F12 media without 9.7 microM Y-27632 dihydrochloride for at least two passages prior to the screen. The established cell line HOP-62 was cultured in RPMI 1640 medium, HEPES (Invitrogen, cat. 22400105) with 10% defined fetal bovine serum (HyClone Laboratories Inc., cat. SH30070.03) and 2 mM L-glutamine (Invitrogen, cat. 25030081). The pooled donor HUVEC were cultured in endothelial cell growth medium 2 (PromoCell, Heidelberg, Germany, cat. C-22011) and the hMSC were cultured in mesenchymal stem cell growth medium 2 (PromoCell, cat. C-28009). For all experiments, HUVEC and hMSC were used at passages </=5, while the malignant cell lines were used at passages </=15. […]

[1] = second compound 0.1 µM, first compound 0.0316 µM
[2] = second compound 0.316 µM, first compound 0.0316 µM
[3] = second compound 1 µM, first compound 0.0316 µM
[4] = second compound 3.16 µM, first compound 0.0316 µM
[5] = second compound 10 µM, first compound 0.0316 µM
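Note: compound exposure lasted 7 days before the readout.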
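Throughout, for viability, T/C: 100% = DMSO vehicle control viability.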

`CC(=O)Nc1cccc(-n2c(=O)n(C3CC3)c(=O)c3c(Nc4ccc(I)cc4F)n(C)c(=O)c(C)c32)c1` + C=CC(=O)N1CCN(c2nc(=O)n(-c3c(C)ccnc3C(C)C)c3nc(-c4c(O)cccc4F)c(F)cc23)C(C)C1 gave an IC50 (second compound 0.1 µM) of 0.0105 µM, an IC50 (second compound 0.316 µM) of 0.00941 µM and an IC50 (second compound 1 µM) of 0.0113 µM. It also gave an IC50 (second compound 3.16 µM) of 0.0316 µM, an IC50 (second compound 10 µM) of 0.00279 µM and a viability, T/C (second compound 0.1 µM, first compound 0.0001 µM) of 88.7%. For the same compound, the viability, T/C (second compound 0.1 µM, first compound 0.000316 µM) was 81.9%, the viability, T/C (second compound 0.1 µM, first compound 0.001 µM) was 66.7% and the viability, T/C (second compound 0.1 µM, first compound 0.00316 µM) was 60.1%. It also gave a viability, T/C (second compound 0.1 µM, first compound 0.01 µM) of 62.9%, a viability, T/C [1] of 9.67% and a viability, T/C (second compound 0.316 µM, first compound 0.0001 µM) of 97.1%. For the same compound, the viability, T/C (second compound 0.316 µM, first compound 0.000316 µM) was 94.5%, the viability, T/C (second compound 0.316 µM, first compound 0.001 µM) was 74.1% and the viability, T/C (second compound 0.316 µM, first compound 0.00316 µM) was 71.3%. For the same compound, the viability, T/C (second compound 0.316 µM, first compound 0.01 µM) was 53.8%, the viability, T/C [2] was 10.6% and the viability, T/C (second compound 1 µM, first compound 0.0001 µM) was 88.5%. For the same compound, the viability, T/C (second compound 1 µM, first compound 0.000316 µM) was 97.4%, the viability, T/C (second compound 1 µM, first compound 0.001 µM) was 93.9% and the viability, T/C (second compound 1 µM, first compound 0.00316 µM) was 59.5%. It also gave a viability, T/C (second compound 1 µM, first compound 0.01 µM) of 62.6%, a viability, T/C [3] of 12.9% and a viability, T/C (second compound 3.16 µM, first compound 0.0001 µM) of 123%. It also gave a viability, T/C (second compound 3.16 µM, first compound 0.000316 µM) of 99%, a viability, T/C (second compound 3.16 µM, first compound 0.001 µM) of 62.8% and a viability, T/C (second compound 3.16 µM, first compound 0.00316 µM) of 54%. It also gave a viability, T/C (second compound 3.16 µM, first compound 0.01 µM) of 64.7%, a viability, T/C [4] of 19.6% and a viability, T/C (second compound 10 µM, first compound 0.0001 µM) of 85.8%. The viability, T/C (second compound 10 µM, first compound 0.000316 µM) was 82.4%, the viability, T/C (second compound 10 µM, first compound 0.001 µM) was 49.1% and the viability, T/C (second compound 10 µM, first compound 0.00316 µM) was 50.9%. It also gave a viability, T/C (second compound 10 µM, first compound 0.01 µM) of 44.7% and a viability, T/C [5] of 28.3%.

With `COc1cc(Nc2ncc3c(n2)-c2ccc(Cl)cc2C(c2c(F)cccc2OC)=NC3)ccc1C(=O)O` + C=CC(=O)N1CCN(c2nc(=O)n(-c3c(C)ccnc3C(C)C)c3nc(-c4c(O)cccc4F)c(F)cc23)C(C)C1 the IC50 (second compound 0.1 µM) was over 10 µM, the IC50 (second compound 0.316 µM) was over 10 µM and the IC50 (second compound 1 µM) was over 10 µM. For the same compound, the IC50 (second compound 3.16 µM) was over 10 µM, the IC50 (second compound 10 µM) was over 10 µM and the viability, T/C [1] was 102%. It also gave a viability, T/C (second compound 0.1 µM, first compound 0.1 µM) of 114%, a viability, T/C (second compound 0.1 µM, first compound 0.316 µM) of 122% and a viability, T/C (second compound 0.1 µM, first compound 1 µM) of 99.9%. It also gave a viability, T/C (second compound 0.1 µM, first compound 3.16 µM) of 96.8%, a viability, T/C (second compound 0.1 µM, first compound 10 µM) of 103% and a viability, T/C [2] of 101%. For the same compound, the viability, T/C (second compound 0.316 µM, first compound 0.1 µM) was 93.8%, the viability, T/C (second compound 0.316 µM, first compound 0.316 µM) was 98% and the viability, T/C (second compound 0.316 µM, first compound 1 µM) was 108%. The viability, T/C (second compound 0.316 µM, first compound 3.16 µM) was 95.2%, the viability, T/C (second compound 0.316 µM, first compound 10 µM) was 72.7% and the viability, T/C [3] was 129%. The viability, T/C (second compound 1 µM, first compound 0.1 µM) was 109%, the viability, T/C (second compound 1 µM, first compound 0.316 µM) was 107% and the viability, T/C (second compound 1 µM, first compound 1 µM) was 127%. For the same compound, the viability, T/C (second compound 1 µM, first compound 3.16 µM) was 106%, the viability, T/C (second compound 1 µM, first compound 10 µM) was 83.3% and the viability, T/C [4] was 126%. For the same compound, the viability, T/C (second compound 3.16 µM, first compound 0.1 µM) was 109%, the viability, T/C (second compound 3.16 µM, first compound 0.316 µM) was 103% and the viability, T/C (second compound 3.16 µM, first compound 1 µM) was 110%. The viability, T/C (second compound 3.16 µM, first compound 3.16 µM) was 107%, the viability, T/C (second compound 3.16 µM, first compound 10 µM) was 88.4% and the viability, T/C [5] was 136%. The viability, T/C (second compound 10 µM, first compound 0.1 µM) was 111%, the viability, T/C (second compound 10 µM, first compound 0.316 µM) was 118% and the viability, T/C (second compound 10 µM, first compound 1 µM) was 127%. The viability, T/C (second compound 10 µM, first compound 3.16 µM) was 119% and the viability, T/C (second compound 10 µM, first compound 10 µM) was 90.3%.
